Some test systems named below: SK-MEL-5; PC-3; NCI-H522; OVCAR-3; BT-549; RPMI-8226; SNB-19; UACC-257; A498; HCT-116; IGROV-1; HT-29; OVCAR-4; NCI/ADR-RES; A549; TK-10; MOLT-4; 786-0; SNB-75; EKVX.
Test in all cases: NCI-60 cell line screen, 48 h

These results are taken from ChEMBL document CHEMBL1201862, “PubChem BioAssay data set” (2004).

Molecules are shown by their SMILES.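 48-hour exposure; five concentrations; linearly interpolated endpoints. GI50 marks 50% less growth.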 Activity calls are given as the source filed them. Rule as the data show it: active = GI50 up to about 1.1 µM and inactive = higher.

With `CN(C)Cc1cc(C(C)(C)C)cc(CN(C)C)c1O`, the GI50 with SK-MEL-5 is > 100 µM (inactive); in the test on PC-3 it was 77.8 µM (inactive); in the test with NCI-H522 it was 43.5 µM (inactive); in the test on OVCAR-3 it was 28.8 µM (inactive); with BT-549 it was > 100 µM (inactive); in the test with RPMI-8226 it was > 100 µM (inactive). Moreover, the GI50 was > 100 µM (inactive) in the test on SNB-19; > 100 µM (inactive) in the test with UACC-257; > 100 µM (inactive) in the test on A498; 35.6 µM (inactive) in the test with HCT-116; > 100 µM (inactive) with IGROV-1; 35.8 µM (inactive) in the test with HT-29. Moreover, the GI50 is > 100 µM (inactive) in the test on OVCAR-4; 34.2 µM (inactive) in the test on NCI/ADR-RES; 76.6 µM (inactive) in the test with A549; 67.3 µM (inactive) in the test on TK-10; 49.2 µM (inactive) in the test with MOLT-4; 60.1 µM (inactive) with 786-0. Moreover, the GI50 is > 100 µM (inactive) in the test on SNB-75 and 40.6 µM (inactive) in the test with EKVX.
For the compound `ClCCCc1ccccc1C1=NCCc2ccccc21`, the GI50 with SK-MEL-5 was 9.73 µM (inactive); in the test with PC-3 it was 36.5 µM (inactive); in the test on NCI-H522 it was 25.5 µM (inactive); in the test on OVCAR-3, > 100 µM (inactive); with BT-549, 21 µM (inactive); in the test with RPMI-8226 it was 3.21 µM (inactive). In addition, the GI50 was 36.8 µM (inactive) in the test on SNB-19; 43.1 µM (inactive) in the test on UACC-257; > 100 µM (inactive) in the test with A498; 42.4 µM (inactive) in the test with HCT-116; 98.9 µM (inactive) with IGROV-1; 28.5 µM (inactive) in the test with HT-29. The GI50 was 51.5 µM (inactive) with OVCAR-4; > 100 µM (inactive) with NCI/ADR-RES; 54.2 µM (inactive) in the test on A549; > 100 µM (inactive) with TK-10; 82.4 µM (inactive) in the test on MOLT-4; > 100 µM (inactive) in the test on 786-0. The GI50 in the test with SNB-75 is 17.5 µM (inactive); with EKVX it was 80.9 µM (inactive).
Turning to `O=C(/C=C/c1ccco1)CC(=O)/C=C/c1ccco1`, the GI50 in the test on SK-MEL-5 is 12.3 µM (inactive); in the test with PC-3 it was > 10 µM (inactive); with NCI-H522, 7.31 µM (inactive); in the test on OVCAR-3, > 10 µM (inactive); with BT-549 it was 18.2 µM (inactive); in the test on RPMI-8226, 8.38 µM (inactive). In addition, the GI50 with SNB-19 was 15.5 µM (inactive); in the test on UACC-257, 37.8 µM (inactive); with A498, 20.9 µM (inactive); with HCT-116 it was 11.4 µM (inactive); with IGROV-1 it was 16.8 µM (inactive); in the test with HT-29 it was > 10 µM (inactive). For the same compound, the GI50 in the test on OVCAR-4 is 15.5 µM (inactive); in the test with NCI/ADR-RES, 12.8 µM (inactive); with A549 it was 14.4 µM (inactive); with TK-10, 26.3 µM (inactive); in the test with MOLT-4, 12 µM (inactive); with 786-0 it was 12.7 µM (inactive). Moreover, the figures for the GI50 with SNB-75 and in the test on EKVX were 18 µM (inactive) and 20.5 µM (inactive), respectively.
With `ClCc1nn(-c2ccccc2)c(CCl)c1CCl`, the GI50 with SK-MEL-5 was 2.68 µM (inactive); in the test with PC-3, 5.71 µM (inactive); in the test on NCI-H522 it was 4.25 µM (inactive); in the test on OVCAR-3, 3.47 µM (inactive); in the test on BT-549, 3.77 µM (inactive); in the test with RPMI-8226, 2.52 µM (inactive). Besides, the GI50 was 6.73 µM (inactive) in the test on SNB-19; 7.76 µM (inactive) in the test on UACC-257; 12 µM (inactive) in the test on A498; 2.33 µM (inactive) in the test on HCT-116; 3.44 µM (inactive) in the test on IGROV-1; 3.43 µM (inactive) with HT-29. Besides, the GI50 with OVCAR-4 is 2.72 µM (inactive); in the test with NCI/ADR-RES, 5.57 µM (inactive); in the test with A549, 7.66 µM (inactive); with TK-10 it was 8.39 µM (inactive); in the test on MOLT-4 it was 1.72 µM (inactive); in the test on 786-0 it was 2.56 µM (inactive). Further, the GI50 in the test with SNB-75 is 1.74 µM (inactive); in the test on EKVX, 3.03 µM (inactive).
`Cc1ccnc2sc3ccccc3c(=O)c12`: the GI50 in the test with SK-MEL-5 was 24.7 µM (inactive); with PC-3, 35.6 µM (inactive); in the test with NCI-H522, 34.7 µM (inactive); with OVCAR-3 it was 91.6 µM (inactive); in the test with BT-549, 25.9 µM (inactive); with RPMI-8226, 36.7 µM (inactive). Further, the GI50 in the test with SNB-19 was 49.8 µM (inactive); with UACC-257, 55.2 µM (inactive); in the test on A498, 29.8 µM (inactive); with HCT-116, 32 µM (inactive); with IGROV-1, 30.7 µM (inactive); with HT-29, 30.3 µM (inactive). For the same compound, the GI50 is > 100 µM (inactive) in the test with OVCAR-4; 48.5 µM (inactive) in the test on NCI/ADR-RES; 23.8 µM (inactive) in the test on TK-10; 26 µM (inactive) in the test on MOLT-4; 65 µM (inactive) in the test with 786-0; 22.4 µM (inactive) with SNB-75. In addition, in the test on EKVX, the GI50 was 18 µM (inactive).
In the case of `COc1cc2c[n+](C)c3c4ccccc4ccc3c2cc1OC`, the GI50 was 2.87 µM (inactive) with SK-MEL-5; 4.89 µM (inactive) in the test on PC-3; 0.302 µM (active) in the test with NCI-H522; 6.05 µM (inactive) in the test on OVCAR-3; 2.92 µM (inactive) with BT-549; 3.05 µM (inactive) in the test with RPMI-8226. Further, the GI50 in the test on SNB-19 is 2.44 µM (inactive); in the test with UACC-257, 3.73 µM (inactive); in the test on A498, 37.4 µM (inactive); in the test on HCT-116 it was 3.95 µM (inactive); with HT-29, 5.4 µM (inactive); in the test with OVCAR-4, 9.4 µM (inactive). In addition, the GI50 with NCI/ADR-RES was > 100 µM (inactive); with A549 it was 0.845 µM (active); with TK-10 it was 26.7 µM (inactive); in the test on MOLT-4, 0.422 µM (active); in the test with 786-0 it was 8.65 µM (inactive); in the test on SNB-75 it was 5.89 µM (inactive). Further, the GI50 in the test with EKVX was 2.54 µM (inactive).
As for `CC(C)c1[nH]nc(C(N)=O)c1/N=N/N(C)C`, the GI50 with SK-MEL-5 was 88.1 µM (inactive); in the test on PC-3, > 100 µM (inactive); in the test with NCI-H522 it was 24.4 µM (inactive); with OVCAR-3 it was > 100 µM (inactive); in the test on BT-549, 34.9 µM (inactive); in the test with RPMI-8226 it was 60.7 µM (inactive). For the same compound, the GI50 in the test on SNB-19 was > 100 µM (inactive); in the test with UACC-257, > 100 µM (inactive); in the test with A498, > 100 µM (inactive); with HCT-116 it was 98.4 µM (inactive); with IGROV-1, > 100 µM (inactive); with HT-29 it was > 100 µM (inactive). The GI50 in the test with OVCAR-4 is > 100 µM (inactive); in the test on NCI/ADR-RES, > 100 µM (inactive); in the test on A549, 23.7 µM (inactive); in the test with TK-10, 64.7 µM (inactive); in the test with MOLT-4 it was 31.9 µM (inactive); with 786-0, > 100 µM (inactive). Besides, the GI50 in the test on SNB-75 is 44.8 µM (inactive); in the test on EKVX, 47.9 µM (inactive).
Regarding `CCN(CC)/N=N/c1c(C(N)=O)n[nH]c1C`, the GI50 is 33.7 µM (inactive) with SK-MEL-5; > 100 µM (inactive) in the test with PC-3; 65.2 µM (inactive) in the test on NCI-H522; > 100 µM (inactive) in the test with OVCAR-3; 11.1 µM (inactive) in the test on BT-549; 44.2 µM (inactive) in the test on RPMI-8226. The GI50 with SNB-19 is 77.1 µM (inactive); in the test with UACC-257, > 100 µM (inactive); in the test on A498, > 100 µM (inactive); in the test on HCT-116, > 100 µM (inactive); with IGROV-1 it was > 100 µM (inactive); with HT-29, > 100 µM (inactive). Further, the GI50 in the test with OVCAR-4 was > 100 µM (inactive); with NCI/ADR-RES, 48.5 µM (inactive); in the test on A549 it was 69 µM (inactive); in the test with TK-10, > 100 µM (inactive); with 786-0, 29.6 µM (inactive); in the test with SNB-75 it was 23.2 µM (inactive). In addition, the GI50 in the test with EKVX is 26.9 µM (inactive).
For `Cc1ccc2c(O)cc(-c3ccsc3)nc2n1`, the GI50 with SK-MEL-5 is 2.71 µM (inactive); in the test with PC-3 it was 4.81 µM (inactive); with NCI-H522 it was 3.67 µM (inactive); with OVCAR-3, 6.46 µM (inactive); in the test with BT-549, 4.46 µM (inactive); in the test on RPMI-8226, 2.2 µM (inactive). In addition, the GI50 was 6.59 µM (inactive) in the test on SNB-19; 16.5 µM (inactive) in the test with UACC-257; 4.07 µM (inactive) in the test on A498; 3.62 µM (inactive) in the test with HCT-116; 4.74 µM (inactive) with IGROV-1; 5.62 µM (inactive) with HT-29. The GI50 in the test on OVCAR-4 was > 29.9 µM (inactive); in the test with NCI/ADR-RES, 2.29 µM (inactive); in the test on A549, 5.24 µM (inactive); in the test on TK-10 it was 26.5 µM (inactive); in the test on MOLT-4 it was 3.56 µM (inactive); with 786-0 it was 4.58 µM (inactive). For the same compound, the values for the GI50 with SNB-75 and in the test with EKVX were 3.14 µM (inactive) and 16.9 µM (inactive), respectively.
As to `COc1cc2oc3c(c(=O)c2c(O)c1/C=C/C(C)C)C(C=C(C)C)Oc1cc(O)ccc1-3` (configuration not stated), the GI50 in the test on SK-MEL-5 was 18.5 µM (inactive); in the test with PC-3 it was 15.6 µM (inactive); in the test on NCI-H522 it was 16.8 µM (inactive); in the test on OVCAR-3 it was 15 µM (inactive); with BT-549, 10.6 µM (inactive); in the test on RPMI-8226, 14.7 µM (inactive). In addition, the GI50 in the test on SNB-19 is 16.4 µM (inactive); with UACC-257, 18.2 µM (inactive); in the test with A498 it was 24.7 µM (inactive); in the test on HCT-116 it was 14.4 µM (inactive); with IGROV-1 it was 13.5 µM (inactive); with HT-29, 14 µM (inactive). Besides, the GI50 in the test with OVCAR-4 was 16.6 µM (inactive); with NCI/ADR-RES, 16.1 µM (inactive); in the test on A549, 15 µM (inactive); with TK-10 it was 16.4 µM (inactive); with MOLT-4, 4.83 µM (inactive); in the test with 786-0 it was 16.2 µM (inactive). Also, the GI50 in the test with SNB-75 is 15.3 µM (inactive); in the test on EKVX, 16.1 µM (inactive).
